Results published in publication doi:10.1101/2024.08.13.607785v1 (biorxiv, 2024).

Assays:
Design in all cases: species or system mixed lysate of K562, MV4-11, THP-1, NCI-H1155
[1] = target: Mitogen-activated protein kinase kinase kinase 4 ; MAP3K4 ; Q9Y6R4 (Homo sapiens, UniProt Q9Y6R4); settings: binder
[2] = target: Tyrosine-protein kinase HCK ; HCK ; P08631 (Homo sapiens, UniProt P08631); settings: DIA-MS residual binding; binder
[3] = target: T1, Dual specificity mitogen-activated protein kinase kinase 5 ; MAP2K5 ; Q13163 (Homo sapiens, UniProt Q13163); settings: DIA-MS residual binding; binder
T1 sequence (Q13163 1-448): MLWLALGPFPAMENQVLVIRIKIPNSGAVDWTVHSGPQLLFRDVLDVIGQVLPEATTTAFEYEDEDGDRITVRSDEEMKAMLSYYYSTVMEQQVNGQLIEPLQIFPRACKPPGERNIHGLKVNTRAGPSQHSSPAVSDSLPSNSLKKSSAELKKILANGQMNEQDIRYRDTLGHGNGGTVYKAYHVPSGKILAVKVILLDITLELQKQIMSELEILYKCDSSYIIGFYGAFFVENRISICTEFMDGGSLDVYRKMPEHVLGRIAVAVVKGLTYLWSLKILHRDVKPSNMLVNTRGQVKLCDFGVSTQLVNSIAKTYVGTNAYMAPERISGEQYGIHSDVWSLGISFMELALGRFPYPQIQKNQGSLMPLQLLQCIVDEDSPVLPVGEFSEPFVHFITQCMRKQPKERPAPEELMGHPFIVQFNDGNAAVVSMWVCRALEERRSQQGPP

[4] = target: T2, Serine/threonine-protein kinase NLK ; NLK ; Q9UBE8 (Homo sapiens, UniProt Q9UBE8); settings: DIA-MS residual binding; binder
T2 sequence (Q9UBE8 1-527): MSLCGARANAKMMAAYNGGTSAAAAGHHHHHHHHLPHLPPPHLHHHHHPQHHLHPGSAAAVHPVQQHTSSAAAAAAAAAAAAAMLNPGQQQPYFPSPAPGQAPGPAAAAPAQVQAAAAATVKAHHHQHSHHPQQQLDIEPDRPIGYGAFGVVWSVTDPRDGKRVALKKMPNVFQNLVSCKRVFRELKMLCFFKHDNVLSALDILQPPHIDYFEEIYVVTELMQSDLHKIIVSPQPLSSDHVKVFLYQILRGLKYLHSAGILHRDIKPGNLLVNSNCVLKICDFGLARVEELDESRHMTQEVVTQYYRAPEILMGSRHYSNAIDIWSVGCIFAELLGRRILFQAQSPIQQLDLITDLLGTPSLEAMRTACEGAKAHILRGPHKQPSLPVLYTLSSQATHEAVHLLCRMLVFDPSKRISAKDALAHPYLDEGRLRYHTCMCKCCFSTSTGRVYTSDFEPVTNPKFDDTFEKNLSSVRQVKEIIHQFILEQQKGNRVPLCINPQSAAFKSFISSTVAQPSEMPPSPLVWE

[5] = target: Activin receptor type-1B ; ACVR1B ; P36896 (Homo sapiens, UniProt P36896); settings: DIA-MS residual binding; binder
[6] = target: Epithelial discoidin domain-containing receptor 1 ; DDR1 ; Q08345 (Homo sapiens, UniProt Q08345); settings: binder
[7] = target: Tyrosine-protein kinase Fgr ; FGR ; P09769 (Homo sapiens, UniProt P09769); settings: binder
[8] = target: Phosphatidylinositol 4-kinase alpha ; PI4KA ; P42356 (Homo sapiens, UniProt P42356); settings: DIA-MS residual binding; binder
[9] = target: Mitogen-activated protein kinase 14 ; MAPK14-2 ; Q16539-2 (Homo sapiens, UniProt Q16539); settings: DIA-MS residual binding; binder
[10] = target: Serine/threonine-protein kinase SIK2 ; SIK2 ; Q9H0K1 (Homo sapiens, UniProt Q9H0K1); settings: DIA-MS residual binding; binder
Serine/threonine-protein kinase SIK2 ; SIK2 ; Q9H0K1, sequence (Q9H0K1 whole entry, one chain of several): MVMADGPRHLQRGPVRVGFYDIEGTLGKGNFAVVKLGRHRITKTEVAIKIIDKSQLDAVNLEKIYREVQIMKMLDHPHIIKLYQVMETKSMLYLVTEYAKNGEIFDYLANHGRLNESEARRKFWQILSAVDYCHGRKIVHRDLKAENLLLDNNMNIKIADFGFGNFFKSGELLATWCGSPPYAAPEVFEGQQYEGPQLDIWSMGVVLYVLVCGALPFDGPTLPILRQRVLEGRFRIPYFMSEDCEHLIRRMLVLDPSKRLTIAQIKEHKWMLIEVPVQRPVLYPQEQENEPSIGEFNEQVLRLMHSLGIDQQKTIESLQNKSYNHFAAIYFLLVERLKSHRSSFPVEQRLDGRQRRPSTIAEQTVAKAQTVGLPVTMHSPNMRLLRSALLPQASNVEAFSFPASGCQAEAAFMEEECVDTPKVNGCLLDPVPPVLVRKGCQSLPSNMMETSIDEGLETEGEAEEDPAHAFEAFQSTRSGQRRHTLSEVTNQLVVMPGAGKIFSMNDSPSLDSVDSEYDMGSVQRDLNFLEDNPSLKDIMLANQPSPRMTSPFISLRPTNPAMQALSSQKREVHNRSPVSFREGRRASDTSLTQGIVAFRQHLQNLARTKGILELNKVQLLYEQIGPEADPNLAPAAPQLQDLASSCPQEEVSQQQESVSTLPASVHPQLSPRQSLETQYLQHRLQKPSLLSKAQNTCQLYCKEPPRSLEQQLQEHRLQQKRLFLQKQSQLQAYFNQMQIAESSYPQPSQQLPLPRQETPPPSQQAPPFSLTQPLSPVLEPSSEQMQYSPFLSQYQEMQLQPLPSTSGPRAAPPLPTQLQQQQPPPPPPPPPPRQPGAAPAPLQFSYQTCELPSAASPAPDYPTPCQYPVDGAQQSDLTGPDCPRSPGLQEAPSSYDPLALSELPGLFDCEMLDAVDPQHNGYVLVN

Mitogen-activated protein kinase 14 ; MAPK14-2 ; Q16539-2, sequence (Q16539 whole entry): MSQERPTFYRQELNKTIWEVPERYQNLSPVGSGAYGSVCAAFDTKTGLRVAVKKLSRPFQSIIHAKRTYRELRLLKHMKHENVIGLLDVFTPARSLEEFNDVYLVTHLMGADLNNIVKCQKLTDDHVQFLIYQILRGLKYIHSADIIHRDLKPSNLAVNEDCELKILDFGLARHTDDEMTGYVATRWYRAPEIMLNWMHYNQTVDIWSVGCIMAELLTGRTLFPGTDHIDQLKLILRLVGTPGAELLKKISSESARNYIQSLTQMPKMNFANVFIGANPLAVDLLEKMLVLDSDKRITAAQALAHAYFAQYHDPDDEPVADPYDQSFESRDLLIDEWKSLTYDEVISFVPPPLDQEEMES
Mitogen-activated protein kinase kinase kinase 4 ; MAP3K4 ; Q9Y6R4, sequence (Q9Y6R4 whole entry): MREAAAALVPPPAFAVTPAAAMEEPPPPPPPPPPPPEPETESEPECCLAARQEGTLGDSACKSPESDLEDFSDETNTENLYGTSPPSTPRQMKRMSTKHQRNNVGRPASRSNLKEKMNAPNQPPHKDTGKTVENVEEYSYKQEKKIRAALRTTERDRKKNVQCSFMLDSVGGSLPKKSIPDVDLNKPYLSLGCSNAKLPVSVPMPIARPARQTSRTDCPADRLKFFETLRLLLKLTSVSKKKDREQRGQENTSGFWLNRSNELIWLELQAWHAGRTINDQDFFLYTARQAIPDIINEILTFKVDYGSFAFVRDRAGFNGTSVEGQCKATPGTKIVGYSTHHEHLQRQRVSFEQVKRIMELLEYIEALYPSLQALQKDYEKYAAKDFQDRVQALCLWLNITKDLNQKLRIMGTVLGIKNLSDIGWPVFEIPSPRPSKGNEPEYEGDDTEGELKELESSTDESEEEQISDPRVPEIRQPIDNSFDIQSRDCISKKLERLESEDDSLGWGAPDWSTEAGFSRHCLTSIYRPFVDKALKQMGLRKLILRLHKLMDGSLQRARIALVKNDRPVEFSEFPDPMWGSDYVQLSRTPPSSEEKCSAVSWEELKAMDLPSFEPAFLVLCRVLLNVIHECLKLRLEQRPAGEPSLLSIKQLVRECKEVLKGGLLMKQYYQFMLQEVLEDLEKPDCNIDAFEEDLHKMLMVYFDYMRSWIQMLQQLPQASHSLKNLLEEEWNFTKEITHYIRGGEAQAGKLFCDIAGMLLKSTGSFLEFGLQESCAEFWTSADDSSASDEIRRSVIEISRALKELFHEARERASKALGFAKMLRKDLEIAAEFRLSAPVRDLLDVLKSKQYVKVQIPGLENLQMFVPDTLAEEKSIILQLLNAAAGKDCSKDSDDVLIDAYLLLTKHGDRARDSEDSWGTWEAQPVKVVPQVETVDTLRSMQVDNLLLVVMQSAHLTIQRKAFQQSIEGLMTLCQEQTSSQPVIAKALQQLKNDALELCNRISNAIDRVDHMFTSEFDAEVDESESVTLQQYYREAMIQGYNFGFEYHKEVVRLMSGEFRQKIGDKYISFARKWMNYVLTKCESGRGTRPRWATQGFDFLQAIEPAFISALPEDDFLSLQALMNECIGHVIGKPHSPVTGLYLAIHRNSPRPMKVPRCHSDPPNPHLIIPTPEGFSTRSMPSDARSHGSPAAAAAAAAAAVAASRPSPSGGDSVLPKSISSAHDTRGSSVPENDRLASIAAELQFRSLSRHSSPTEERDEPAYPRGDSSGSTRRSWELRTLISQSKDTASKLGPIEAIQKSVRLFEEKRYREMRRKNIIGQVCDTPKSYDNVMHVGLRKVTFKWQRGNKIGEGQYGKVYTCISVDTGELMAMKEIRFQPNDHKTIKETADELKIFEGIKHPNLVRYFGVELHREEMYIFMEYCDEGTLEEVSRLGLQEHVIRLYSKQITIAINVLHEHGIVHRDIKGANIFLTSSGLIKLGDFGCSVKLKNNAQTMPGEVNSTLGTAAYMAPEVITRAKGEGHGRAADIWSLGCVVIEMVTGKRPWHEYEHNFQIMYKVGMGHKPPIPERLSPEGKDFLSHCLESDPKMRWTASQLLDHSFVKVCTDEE
Tyrosine-protein kinase HCK ; HCK ; P08631, sequence (P08631 whole entry): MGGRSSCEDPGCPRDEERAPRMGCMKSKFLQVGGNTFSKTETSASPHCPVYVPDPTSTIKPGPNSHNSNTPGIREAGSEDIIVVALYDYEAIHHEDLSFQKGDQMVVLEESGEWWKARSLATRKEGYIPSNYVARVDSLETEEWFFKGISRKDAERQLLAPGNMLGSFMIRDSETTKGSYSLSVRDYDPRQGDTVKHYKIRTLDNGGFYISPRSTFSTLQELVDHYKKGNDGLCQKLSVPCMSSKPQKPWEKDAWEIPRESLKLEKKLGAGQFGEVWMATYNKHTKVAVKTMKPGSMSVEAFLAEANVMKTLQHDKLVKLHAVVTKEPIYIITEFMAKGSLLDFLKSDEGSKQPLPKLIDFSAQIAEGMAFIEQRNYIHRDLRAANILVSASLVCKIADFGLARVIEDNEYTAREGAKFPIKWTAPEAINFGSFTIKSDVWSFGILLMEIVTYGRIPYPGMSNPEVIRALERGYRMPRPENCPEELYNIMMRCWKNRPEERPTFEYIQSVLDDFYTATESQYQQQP
Activin receptor type-1B ; ACVR1B ; P36896, sequence (P36896 whole entry, the tested form may be a part): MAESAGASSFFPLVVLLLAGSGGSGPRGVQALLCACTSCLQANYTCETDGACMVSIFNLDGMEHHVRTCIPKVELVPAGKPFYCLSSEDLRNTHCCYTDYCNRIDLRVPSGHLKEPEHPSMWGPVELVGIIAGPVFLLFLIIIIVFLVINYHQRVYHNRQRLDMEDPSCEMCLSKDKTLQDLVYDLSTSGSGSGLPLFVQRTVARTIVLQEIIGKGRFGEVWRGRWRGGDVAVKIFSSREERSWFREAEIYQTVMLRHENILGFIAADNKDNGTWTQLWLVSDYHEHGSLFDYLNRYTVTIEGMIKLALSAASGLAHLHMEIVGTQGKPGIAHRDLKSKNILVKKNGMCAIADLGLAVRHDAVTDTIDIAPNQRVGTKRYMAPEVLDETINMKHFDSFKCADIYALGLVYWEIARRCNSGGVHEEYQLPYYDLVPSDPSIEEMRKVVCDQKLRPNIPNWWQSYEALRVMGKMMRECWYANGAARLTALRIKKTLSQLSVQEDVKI
Tyrosine-protein kinase Fgr ; FGR ; P09769, sequence (P09769 whole entry): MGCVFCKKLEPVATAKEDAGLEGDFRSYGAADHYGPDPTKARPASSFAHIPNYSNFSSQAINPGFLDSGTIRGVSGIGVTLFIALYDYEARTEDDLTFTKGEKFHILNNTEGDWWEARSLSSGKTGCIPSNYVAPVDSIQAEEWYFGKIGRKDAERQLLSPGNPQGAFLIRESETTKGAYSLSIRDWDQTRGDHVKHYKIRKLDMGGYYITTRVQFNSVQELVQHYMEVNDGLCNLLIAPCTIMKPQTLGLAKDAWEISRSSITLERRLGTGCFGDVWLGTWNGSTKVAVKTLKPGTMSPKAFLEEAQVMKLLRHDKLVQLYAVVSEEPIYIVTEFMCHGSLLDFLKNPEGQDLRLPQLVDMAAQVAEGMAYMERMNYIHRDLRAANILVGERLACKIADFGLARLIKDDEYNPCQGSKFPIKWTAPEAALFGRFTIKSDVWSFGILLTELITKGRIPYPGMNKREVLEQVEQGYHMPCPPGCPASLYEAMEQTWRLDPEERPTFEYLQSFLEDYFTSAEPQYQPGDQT

Cc1nc(Nc2ncc(C(=O)Nc3c(C)cccc3Cl)s2)cc(N2CCN(CCO)CC2)n1 [dasatinib]
DIA-MS / % Intensity (30 µM/DMSO) [1]: 31.25%
DIA-MS / % Intensity (30 µM/DMSO) [2]: 2.086%
DIA-MS / % Intensity (30 µM/DMSO) [3]: 35.82%
DIA-MS / % Intensity (30 µM/DMSO) [4]: 47.56%
DIA-MS / % Intensity (30 µM/DMSO) [5]: 38.22%
DIA-MS / % Intensity (30 µM/DMSO) [6]: 2.942%
DIA-MS / % Intensity (30 µM/DMSO) [7]: 0.4999%
DIA-MS / % Intensity (30 µM/DMSO) [8]: 31.23%
DIA-MS / % Intensity (30 µM/DMSO) [9]: 35.75%
DIA-MS / % Intensity (30 µM/DMSO) [10]: 2.882%
